# Experimental data published in US11034650B2, “Compounds useful for treating a Mannheimia haemolytica or Histophilus somni infection” (Intervet Inc., priority 2016, dated 2021).
# What was measured:
# Type in all cases: cell-based
# [1] = tested on: Mannheimia haemolytica MH 6357 (M7/2, reference strain, cattle infection strain); assay: MIC, broth-microdilution (CLSI VET01-A4), strain MH 6357; conditions: Mannheimia haemolytica strain MH 6357, broth-microdilution; unit assumed
# How it was run: (§1)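 Test articles are arrayed as a twofold dilution range in microdilution trays. Wells are scored by naked eye, and the MIC is taken where turbidity first disappears.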
# [2] = tested on: Mannheimia haemolytica MH 6374 (ATCC 33396, reference strain); assay: MIC, broth-microdilution (CLSI VET01-A4), strain MH 6374; conditions: Mannheimia haemolytica strain MH 6374, broth-microdilution; unit assumed
# How it was run: as §1
# [3] = tested on: Mannheimia haemolytica MH 10720 (154, BRD field isolate); assay: MIC, broth-microdilution (CLSI VET01-A4), strain MH 10720; conditions: Mannheimia haemolytica strain MH 10720, broth-microdilution; unit assumed
# How it was run: as §1
# [4] = tested on: Mannheimia haemolytica MH 12587 (1071, BRD field isolate, macrolide-resistance: erm+, E+); assay: MIC, broth-microdilution (CLSI VET01-A4), strain MH 12587; conditions: Mannheimia haemolytica strain MH 12587, broth-microdilution; unit assumed
# How it was run: as §1
# [5] = tested on: Mannheimia haemolytica MH 13065 (XB0446-6003.9, BRD field isolate); assay: MIC, broth-microdilution (CLSI VET01-A4), strain MH 13065; conditions: Mannheimia haemolytica strain MH 13065, broth-microdilution; unit assumed
# How it was run: as §1
# [6] = tested on: Mannheimia haemolytica MH 13093 (XB0472-6014.1, BRD field isolate); assay: MIC, broth-microdilution (CLSI VET01-A4), strain MH 13093; conditions: Mannheimia haemolytica strain MH 13093, broth-microdilution; unit assumed
# How it was run: as §1
# [7] = tested on: Pasteurella multocida PM 6267 (P 2225 (L386), reference strain, mouse infection strain); assay: MIC, broth-microdilution (CLSI VET01-A4), strain PM 6267; conditions: Pasteurella multocida strain PM 6267, broth-microdilution; unit assumed
# How it was run: as §1
# [8] = tested on: Pasteurella multocida PM 6391 (ATCC 43137, reference strain); assay: MIC, broth-microdilution (CLSI VET01-A4), strain PM 6391; conditions: Pasteurella multocida strain PM 6391, broth-microdilution; unit assumed
# How it was run: as §1
# [9] = tested on: Pasteurella multocida PM 10775 (080130003051, BRD field isolate); assay: MIC, broth-microdilution (CLSI VET01-A4), strain PM 10775; conditions: Pasteurella multocida strain PM 10775, broth-microdilution; unit assumed
# How it was run: as §1
# [10] = tested on: Pasteurella multocida PM 12080 (IV102277-0093, BRD field isolate); assay: MIC, broth-microdilution (CLSI VET01-A4), strain PM 12080; conditions: Pasteurella multocida strain PM 12080, broth-microdilution; unit assumed
# How it was run: as §1
SMILES,MIC PM 6267 [7],MIC PM 6391 [8],MIC PM 10775 [9],MIC PM 12080 [10],MIC MH 6357 [1],MIC MH 6374 [2],MIC MH 10720 [3],MIC MH 12587 [4],MIC MH 13065 [5],MIC MH 13093 [6]
Cc1cnc(CNCc2ccc(C#Cc3ccc(C(=O)N[C@H](C(=O)NO)C(C)(C)S(C)(=O)=O)cc3)cn2)o1 [Compound 357],0.8 mg/L,0.4 mg/L,≤ 0.1 mg/L,0.2 mg/L,0.8 mg/L,0.8 mg/L,≤ 0.1 mg/L,1.6 mg/L,0.8 mg/L,1.6 mg/L
CC(C)(O)[C@H](NC(=O)c1ccc(C#Cc2ccc(CNCC#N)s2)cc1)C(=O)NO [Compound 358],0.8 mg/L,1.6 mg/L,0.2 mg/L,0.8 mg/L,3.1 mg/L,1.6 mg/L,0.8 mg/L,6.3 mg/L,6.3 mg/L,6.3 mg/L
CC(C)(O)[C@H](NC(=O)c1ccc(C#Cc2ccc(CNCc3nccs3)s2)cc1)C(=O)NO [Compound 359],≤ 0.1 mg/L,≤ 0.1 mg/L,0.2 mg/L,≤ 0.1 mg/L,0.4 mg/L,0.2 mg/L,≤ 0.1 mg/L,0.4 mg/L,0.2 mg/L,0.4 mg/L
CC(C)(O)[C@H](NC(=O)c1ccc(C#Cc2ccc(CNCc3ncccn3)s2)cc1)C(=O)NO [Compound 360],0.4 mg/L,1.6 mg/L,≤ 0.1 mg/L,0.4 mg/L,0.8 mg/L,1.6 mg/L,0.8 mg/L,6.3 mg/L,1.6 mg/L,6.3 mg/L
C=CCNCc1ccc(C#Cc2ccc(C(=O)N[C@H](C(=O)NO)C(C)(C)O)cc2)cn1 [Compound 361],0.4 mg/L,0.4 mg/L,≤ 0.1 mg/L,0.2 mg/L,3.1 mg/L,0.8 mg/L,0.4 mg/L,3.1 mg/L,1.6 mg/L,3.1 mg/L
CC(C)(O)[C@H](NC(=O)c1ccc(C#Cc2ccc(CNCc3nccs3)nc2)cc1)C(=O)NO [Compound 362],0.2 mg/L,0.4 mg/L,≤ 0.1 mg/L,0.2 mg/L,3.1 mg/L,0.8 mg/L,0.4 mg/L,3.1 mg/L,1.6 mg/L,3.1 mg/L
CC(C)(O)[C@H](NC(=O)c1ccc(C#Cc2ccc(CNCc3ncccn3)nc2)cc1)C(=O)NO [Compound 363],1.6 mg/L,3.1 mg/L,0.4 mg/L,1.6 mg/L,6.3 mg/L,6.3 mg/L,3.1 mg/L,25 mg/L,12.5 mg/L,25 mg/L
CSC(C)(C)[C@H](NC(=O)c1ccc(C#Cc2ccc(CNCc3ccncc3)s2)cc1)C(=O)NO [Compound 364],0.4 mg/L,0.4 mg/L,≤ 0.1 mg/L,≤ 0.1 mg/L,0.8 mg/L,0.8 mg/L,0.2 mg/L,1.6 mg/L,0.8 mg/L,0.8 mg/L
CSC(C)(C)[C@H](NC(=O)c1ccc(C#Cc2ccc(CNCc3nccs3)s2)cc1)C(=O)NO [Compound 365],0.4 mg/L,0.4 mg/L,≤ 0.1 mg/L,≤ 0.1 mg/L,0.8 mg/L,0.8 mg/L,0.2 mg/L,3.1 mg/L,1.6 mg/L,1.6 mg/L
CSC(C)(C)[C@H](NC(=O)c1ccc(C#Cc2ccc(CNCc3ncccn3)s2)cc1)C(=O)NO [Compound 366],0.4 mg/L,0.4 mg/L,≤ 0.1 mg/L,0.2 mg/L,0.8 mg/L,0.8 mg/L,0.2 mg/L,1.6 mg/L,0.8 mg/L,1.6 mg/L
CSC(C)(C)[C@H](NC(=O)c1ccc(C#Cc2ccc(CNCc3cccnc3)nc2)cc1)C(=O)NO [Compound 367],0.4 mg/L,0.4 mg/L,≤ 0.1 mg/L,0.2 mg/L,0.8 mg/L,0.8 mg/L,0.4 mg/L,3.1 mg/L,1.6 mg/L,3.1 mg/L
CSC(C)(C)[C@H](NC(=O)c1ccc(C#Cc2ccc(CNCc3nccs3)nc2)cc1)C(=O)NO [Compound 368],0.4 mg/L,0.4 mg/L,≤ 0.1 mg/L,0.2 mg/L,0.8 mg/L,0.8 mg/L,0.4 mg/L,1.6 mg/L,0.8 mg/L,1.6 mg/L
CC(C)([C@H](NC(=O)c1ccc(C#Cc2ccc(CNCc3nccs3)s2)cc1)C(=O)NO)S(C)(=O)=O [Compound 369],≤ 0.1 mg/L,≤ 0.1 mg/L,≤ 0.1 mg/L,≤ 0.1 mg/L,0.4 mg/L,0.2 mg/L,≤ 0.1 mg/L,0.4 mg/L,0.4 mg/L,0.4 mg/L

# More lines, main results first:
MIC PM 6267 [7],MIC PM 6391 [8],MIC PM 10775 [9],MIC PM 12080 [10],SMILES,MIC MH 6357 [1],MIC MH 6374 [2],MIC MH 10720 [3],MIC MH 12587 [4],MIC MH 13065 [5],MIC MH 13093 [6]
0.2 mg/L,0.4 mg/L,≤ 0.1 mg/L,0.2 mg/L,C=CCNCc1ccc(C#Cc2ccc(C(=O)N[C@H](C(=O)NO)C(C)(C)S(C)(=O)=O)cc2)cn1 [Compound 370],0.8 mg/L,1.6 mg/L,0.8 mg/L,3.1 mg/L,1.6 mg/L,3.1 mg/L
0.2 mg/L,0.2 mg/L,≤ 0.1 mg/L,0.2 mg/L,CC(C)([C@H](NC(=O)c1ccc(C#Cc2ccc(CNCc3ccncc3)nc2)cc1)C(=O)NO)S(C)(=O)=O [Compound 371],1.6 mg/L,1.6 mg/L,0.8 mg/L,3.1 mg/L,1.6 mg/L,3.1 mg/L
1.6 mg/L,1.6 mg/L,0.4 mg/L,0.8 mg/L,CC(C)([C@H](NC(=O)c1ccc(C#Cc2ccc(CNCC#N)nc2)cc1)C(=O)NO)S(C)(=O)=O [Compound 372],6.3 mg/L,12.5 mg/L,3.1 mg/L,25 mg/L,12.5 mg/L,25 mg/L
0.4 mg/L,0.8 mg/L,≤ 0.1 mg/L,0.4 mg/L,CC(C)([C@H](NC(=O)c1ccc(C#Cc2ccc(CNCc3cccnc3)nc2)cc1)C(=O)NO)S(C)(=O)=O [Compound 373],1.6 mg/L,3.1 mg/L,0.4 mg/L,6.3 mg/L,3.1 mg/L,3.1 mg/L
0.2 mg/L,0.2 mg/L,≤ 0.1 mg/L,≤ 0.1 mg/L,CC(C)([C@H](NC(=O)c1ccc(C#Cc2ccc(CNCc3nccs3)nc2)cc1)C(=O)NO)S(C)(=O)=O [Compound 374],0.8 mg/L,0.8 mg/L,0.4 mg/L,3.1 mg/L,1.6 mg/L,3.1 mg/L
0.8 mg/L,1.6 mg/L,≤ 0.1 mg/L,3.1 mg/L,"O=C(N[C@@H](CO)C(=O)NO)c1ccc(C#Cc2ccc([N+](=O)[O-])cc2)cc1 [Compound 375, N-[(1S)-2-(hydroxyamino)-1-(hydroxymethyl)-2-oxo-ethyl]-4-[2-(4-nitrophenyl)ethynyl]benzamide]",1.6 mg/L,3.1 mg/L,0.8 mg/L,6.3 mg/L,3.1 mg/L,6.3 mg/L
0.8 mg/L,1.6 mg/L,≤ 0.1 mg/L,1.6 mg/L,"Nc1ccc(C#Cc2ccc(C(=O)N[C@@H](CO)C(=O)NO)cc2)cc1 [Compound 376, 4-[2-(4-aminophenyl)ethynyl]-N-[(1S)-2-(hydroxyamino)-1-(hydroxymethyl)-2-oxo-ethyl]benzamide]",1.6 mg/L,3.1 mg/L,0.8 mg/L,6.3 mg/L,3.1 mg/L,6.3 mg/L
1.6 mg/L,≤ 0.1 mg/L,0.4 mg/L,0.2 mg/L,CON=C(C)[C@H](NC(=O)c1ccc(C#Cc2ccc(CNC3CC3)cc2)cc1)C(=O)NO [Compound 378],0.8 mg/L,0.8 mg/L,0.4 mg/L,0.2 mg/L,0.8 mg/L,0.8 mg/L
